Measurements taken from PMC3465347, “Regulation of NF-κB Activation through a Novel PI-3K-Independent and PKA/Akt-Dependent Pathway in Human Umbilical Vein Endothelial Cells” (PLoS ONE, 2012).
One block for each compound: values may come before it.

How the values were obtained:
[1] = system: Akt phosphorylation in HUVECs; assay: Akt phosphorylation western blot; format: cell-based, human; conditions: wortmannin 100 µM or H-89 20 µM, 30 mins, then TNF-α 10 ng/ml 30 mins
Protocol: Nuclear and cytoplasmic extracts were fractionated on SDS-PAGE with equal amount of proteins per well and transferred onto PVDF membranes and those membranes were incubated with appropriate primary antibodies and treated with HRP conjugated secondary antibodies followed by detection with DAB-H2O2 system. β-tubulin, α-actin and Lamin B1 were used as loading controls. Antibodies against NF-κBp65, phosphoNF-κBp65, IκBα, phosphoIκBα, IKK-β, Akt, phosphoAkt (Ser473) and phosphoAkt (Thr308) were used.

[2] = system: NF-κB DNA-binding activity in HUVECs; assay: NF-κB activation assay (EMSA) in nuclear extracts; format: cell-based, human; conditions: wortmannin 100 µM or H-89 20 µM, 30 mins, then TNF-α 10 ng/ml
Protocol: The endothelial cells were subjected to the indicated treatments followed by induction with TNF-α for indicated time points or 30 mins. The cells were then washed with PBS and dislodged using a cell scraper. The cytoplasmic and nuclear extracts were prepared as described previously, [46].
NF-κB activation in the nuclear extracts of human endothelial cells was assessed by electrophoretic mobility shift assay (EMSA) as described previously, [46]. For supershift experiment, nuclear extracts prepared from unstimulated and TNF-α-stimulated cells were incubated with antibodies against the p50 or p65 subunit of NF-κB or -α-tubulin for 15 mins at 37°C before the complex was analyzed by EMSA. Addition of equal amount of radioactive-labelled probe to all the samples was indicated by the similar intensity of the unincorporated probe observed towards the end of the gel.

PKA = biological target: T1, PKA (Homo sapiens, UniProt P17612); assay: PKA activity assay; format: cell-based
T1 construct: PKA was immunoprecipitated from the total cell lysates of unstimulated and TNF-α-stimulated endothelial cells; endogenous in cells; host or cells: HUVEC (treated with MPTAG, SQ 22536, H-89 ± TNF-α), anti-PKAα immunoprecipitate
Text: PKA was immunoprecipitated from the total cell lysates of unstimulated and TNF-α-stimulated endothelial cells in presence and absence of treatment with agents indicated in Figure 7 using anti-PKAα (W-18) antibody. The immunoprecipates were subjected to kinase activity assay using a Bisamide Rhodamine 110 peptide substrate as per the instructions of the Profluor PKA assay kit (Promega, USA).

[3] = system: TNF-α-induced ICAM-1 expression on human endothelial cells; parameters: method as in PMID 21315792; conditions: dose-dependent; cited from earlier work
[4] = system: TNF-α-induced VCAM-1 expression on human endothelial cells; parameters: method as in PMID 21315792; conditions: dose-dependent; cited from earlier work
[5] = system: TNF-α-induced E-selectin expression on human endothelial cells; parameters: method as in PMID 21315792; conditions: dose-dependent; cited from earlier work
[6] = system: adhesion of neutrophils to the endothelium monolayer; parameters: method as in PMID 21315792; conditions: dose-dependent; cited from earlier work
PI-3K = PI-3K activity assay; format: cell-based, human; conditions: pretreatment, HUVECs
Text: The catalytic domain of PI-3K was immunoprecipitated from the stimulated and unstimulated endothelial in presence and absence of various compound treatment using an anti-p85α (N-18) antibody. The immunoprecipated proteins were subjected to kinase activity assay using a PI substrate, diC8 followed by detection of the PI(3)P as per the instructions of the Class III PI-3kinase kit (Echelon, USA).

TNF-α-induced NF-κB activation (EMSA), kinase inhibitor alone [2]: enhanced
PKA activity (PKA; H-89 treatment, even in presence of MPTAG): inhibited
Structure (SMILES): O=S(=O)(NCCNC/C=C/c1ccc(Br)cc1)c1cccc2cnccc12 [H-89, reference compound]
TNF-α-induced Akt phosphorylation (Thr308), kinase inhibitor alone [1]: enhanced

Structure (SMILES): Cc1occc(=O)c1O[C@@H]1O[C@H](CO)[C@@H](O)[C@H](O)[C@H]1O [MPG, 2-methyl-pyran-4-one-3-O-β-D-glucopyranoside]
inhibition of TNF-α-induced ICAM-1 expression [3]: inhibited
inhibition of TNF-α-induced VCAM-1 expression [4]: inhibited
inhibition of TNF-α-induced E-selectin expression [5]: inhibited
inhibition of adhesion of neutrophils to the endothelium monolayer [6]: inhibited

PKA activity in unstimulated HUVECs (PKA; SQ 22536 treatment alone): moderately suppressed
Structure (SMILES): Nc1ncnc2c1ncn2C1CCCO1 (centres unmarked) [SQ 22536, reference compound]

Structure (SMILES): COC[C@H]1OC(=O)c2coc3c2[C@@]1(C)C1=C(C3=O)[C@@H]2CCC(=O)[C@@]2(C)C[C@H]1OC(C)=O [wortmannin, Wortmannin, reference compound]
TNF-α-induced Akt phosphorylation (Thr308), kinase inhibitor alone [1]: inhibited
TNF-α-induced NF-κB activation (EMSA), kinase inhibitor alone [2]: inhibited
TNF-α-induced PI-3K activity (PI-3K): abolished
